One data set deals with S. aureus MRSA4. Briefly: MIC against S. aureus MRSA4 in vitro (broth dilution). The format is cell-based. The settings on record: Staphylococcus aureus. An excerpt:
We synthesized 50 compounds (Fig. 2, Supplementary Table 1) using the Steglich esterification scheme[31] in the presence of a […], 1-ethyl-3-(3-dimethylaminopropyl)-carbodiimide hydrochloride (Fig. 1b). Antimicrobial activities of the compounds were examined by determining the MIC against S. aureus MRSA4 in vitro; therapeutic activities were examined using a systemic infection model of silkworms infected with S. aureus MSSA1. […]
(§1) Antimicrobial activity was assessed by determining the MIC by broth dilution assay according to our previous reports[21],[35],[36] as per the Clinical and Laboratory Standards Institute[37]. Briefly, serial dilutions of compound 5, compound 7, and positive controls were prepared in cation-adjusted Mueller-Hinton Broth (MHB, Difco, Franklin Lakes, NJ, USA), 100 µl of which was dispensed into each well of a round-bottomed 96-well plate. The final concentrations in the well ranged from 128 µg/ml to 0.0625 µg/ml. Bacteria were grown at 37 °C overnight on either Luria Bertani (tryptone 10 g/l, yeast extract 5 g/l, NaCl 10 g/l) or Tryptic Soy Broth (TSB, Difco) agar plates or sheep blood agar plates (Eiken Chemical Co. Ltd., Tokyo, Japan). Bacterial inoculum was prepared by direct suspension of the colonies in 0.9% saline, and adjusted to obtain a turbidity equivalent to a 0.5 McFarland standard using a spectrophotometer UV-1280 (Shimadzu Corp., Kyoto, Japan). The suspension was then diluted 1:20 in cation-adjusted MHB (Difco), and 10 µl of it was inoculated into each well of previously prepared 96-well plates containing compounds to obtain approximately 5 × 10^4 colony forming units/well and incubated at 37 °C for 20 h. […] Vancomycin (Wako Pure Chemicals) or norfloxacin (Sigma Aldrich, St Louis, MO, USA) were used as positive controls. Each plate contained a growth control well and a vehicle control well. The MIC was determined as the minimum concentration that inhibited the growth of the bacteria.

The test system of data set [1] is Streptococcus pneumoniae (clinical isolate). Briefly: MIC by broth microdilution assay. It is filed as cell-based. Particulars: MHB with 2.5% lysed horse blood, 24 h, median of three experiments. As for the experimental part: as §1, with “obtain approximately 5 × 10^4 colony forming units/well and incubated at 37 °C for 20 h.” left out
Data set [2] concerns Streptococcus pyogenes SSI-9. Briefly: MIC by broth microdilution assay. Particulars: SSI9, MHB with 2.5% lysed horse blood, 24 h, median of three experiments. The format is cell-based. As for the experimental part:
as §1, with “obtain approximately 5 × 10^4 colony forming units/well and incubated at 37 °C for 20 h.” left out

The nature of data set [3]: Pharmacokinetics in silkworm hemolymph after intra-hemolymph injection. It is filed as in vivo, Silkworms (Bombyx mori). The settings on record: for Cmax / AUC(0-t) / k el / AUC(0-inf) / C0 / clearance / MRT inf / Vd / half-life: Hu•Yo × Tsukuba•Ne, 50 ug, injected dose 50 μg intra-hemolymph; for AUC(0-t): 0 to last measured value (5 h); for k el: PKSolver non-compartment analysis, read-out: Lambda_z (converted); for AUC(0-inf): extrapolated to infinity; for C0: read-out: C0 (initial concentration, extrapolated time-zero value); for clearance: read-out: Cl (total clearance); for MRT inf: read-out: MRT 0-inf (mean residence time) (converted); for Vd: read-out: Vss (volume of distribution at steady state); for half-life: read-out: t1/2 (half-life at terminal phase). As for the experimental part: To gain an insight into the reason for the difference in the therapeutic activities of compounds 5 and 7, we evaluated the pharmacokinetic properties of both compounds in vivo in silkworms. We injected silkworms into the hemolymph with compound 5 or compound 7 (50 µg each) and collected the hemolymph from each injected silkworm at different time-points for high performance liquid chromatography (HPLC) analysis. The concentration-time profile was plotted and the pharmacokinetic parameters were analyzed using PKSolver[32] (Fig. 3a,b). […] The volume of distribution at steady state (Vss) value of compound 7 was larger than that of compound 5, further indicating the higher distribution capacity of compound 7 compared with compound 5. The concentrations of compounds 5 and 7 in the hemolymph decreased with time, with compound 7 having faster rate of elimination than compound 5. At 5 h, the concentration of compound 5 in the hemolymph was approximately 10-fold higher than that of 7. […] Both the area under the curves (AUC) at 5 h and that extrapolated to infinity were higher for compound 5 than for compound 7 in the silkworm.
Silkworms larvae hatched from eggs (Hu•Yo × Tsukuba•Ne, Ehime Sanshu, Ehime, Japan) were fed Silkmate 2S (Nosan Corporation, Yokohama, Japan) and grown at 27 °C until the fourth molt stage. They were, then, fed an antibiotic-free artificial food, Silkmate (Katakura Industries Co., Ltd., Tokyo, Japan), on the first day of fifth-instar larval stage. The next day, larvae (~2 g) were injected into the hemolymph with 50 µg of compounds 5 and 7 using a 1 ml syringe with a 27 G needle (Terumo Corporation, Tokyo, Japan). Silkworms were incubated after injection at 27 °C without feeding. The hemolymph was harvested from the limbs of individual silkworms at the indicated time, and the silkworms were killed after the harvest. The harvested hemolymph was mixed with an equal volume of acetonitrile followed by centrifugation at 15, 000 rpm for 10 min at 4 °C. The supernatant was collected, evaporated, and dissolved into 50% acetonitrile. The samples thus prepared were analyzed by high performance liquid chromatography (HPLC) equipped with a Waters 2998 Photodiode Array Detector (Waters Corporation, Milford, MA, USA) and a Waters 2707 Autosampler (Waters) using a Senshu-Pak Pegasil ODS-SP-100 column (4.6 Ø × 250 mm; Senshu Scientific, Tokyo, Japan) with gradient elution of 50–100% acetonitrile for 30 min at a flow rate of 1 ml/min. Standard curves for each compound were drawn by measuring the peak area on HPLC charts, and the amounts of each compound in the sample were determined. Mean concentrations from triplicate experiments were determined for each time-point and the pharmacokinetic parameters were determined using the PKSolver 2.0 ‘add-in’ for Excel 2007 on a computer running Windows 7[32]. Non-compartment analysis was performed with area under the curve calculated using the linear trapezoidal method. The terminal elimination slope, λz was calculated based on default parameters. Statistical analysis was performed using Prism 5 for Mac OS X, version 5.0 f (GraphPad Software, La Jolla, CA).

[4] abbreviates: MRSA, MRSA4 (clinical isolate), median of three experiments (Table 1).
Where [5] appears, read: S. aureus MRSA4 in vitro, SAR series (Fig. 2).

In brackets after ≈: the same amount, converted by molar mass.

`O=C(OCc1cc(Cl)cc(Cl)c1)c1ccc([N+](=O)[O-])s1` [compound 5]: in the data set with S. aureus MRSA4 (setting [4]), the MIC amounted to 0.5 µg/mL (≈ 1.51 µM). Besides, inhibition of growth against S. aureus MRSA4 (setting [5]) (MIC) required 0.5 µg/mL (≈ 1.51 µM). This molecule also came in with a minimum inhibitory concentration (MIC) in data set [1] of 1 µg/mL (≈ 3.01 µM). Further, the minimal inhibitory concentration (MIC) in data set [2] was 8 µg/mL (≈ 24.1 µM). In addition, in data set [3], the Cmax was found to be 23000 ng/mL, the area under the curve AUC(0-t) is 3000 ng·h/mL, the k el is 8.33e-05 s⁻¹ and the area under the curve AUC(0-inf) is 3480 ng·h/mL. For the same molecule, in data set [3], the C0 is 24000 ng/mL, the clearance is 0.23 mL/min, the mean residence time (MRT inf) is 2.08 h and the Vd was 0.03 L. The half-life in data set [3] worked out at 2.33 h. Besides, the “concentration in the hemolymph relative to compound 7” value in data set [3] (at 5 h after injection of 50 µg) was “approximately 10 fold”.

Consider `O=C(OCc1ccccc1)c1ccc([N+](=O)[O-])s1` [compound 7], for which the minimal inhibitory concentration (MIC) with S. aureus MRSA4 (setting [4]) amounted to 1 µg/mL (≈ 3.8 µM). This molecule also registered an MIC against S. aureus MRSA4 (setting [5]) of 1 µg/mL (≈ 3.8 µM). Besides, in data set [1], the minimum inhibitory concentration (MIC) amounted to 1 µg/mL (≈ 3.8 µM). In data set [2], this molecule had an MIC of 16 µg/mL (≈ 60.8 µM). In data set [3], the highest concentration (Cmax) is 7000 ng/mL, the area under the curve AUC(0-t) was 733 ng·h/mL, the k el is 0.000217 s⁻¹ and the AUC(0-inf) is 733 ng·h/mL. Further, in data set [3], the C0 was 7000 ng/mL, the clearance was 1.1 mL/min, the mean residence time MRT inf is 0.733 h and the Vd was 0.044 L. For the same molecule, the half-life in data set [3] was 0.883 h.

The values above are taken from publication PMC5785531, “Pharmacokinetic parameters explain the therapeutic activity of antimicrobial agents in a silkworm infection model” (Scientific Reports, 2018).
